Experimental data as given in patent US11780843B2, “Compounds active towards nuclear receptors” (NUEVOLUTION A/S, priority 2020, dated 2023).
Like-named read-outs stand apart in the source and are kept apart here.

Key:
[1] = biological target: T1, RORγ ligand-binding domain (Homo sapiens, UniProt P51449); experiment: RORγ Reporter Assay (Gal4); type: cell-based
T1 construct: Gal4 (galactose-responsive transcription factor); expressed in transfected cells; host or cells: HEK293, transient co-transfection
T1 sequence (P51449 269-508 limits assumed): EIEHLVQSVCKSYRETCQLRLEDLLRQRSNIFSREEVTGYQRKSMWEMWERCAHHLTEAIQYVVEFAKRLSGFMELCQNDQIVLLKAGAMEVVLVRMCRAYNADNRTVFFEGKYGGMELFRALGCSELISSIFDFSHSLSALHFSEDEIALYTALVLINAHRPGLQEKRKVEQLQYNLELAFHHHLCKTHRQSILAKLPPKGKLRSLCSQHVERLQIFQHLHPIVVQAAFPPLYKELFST
Experimental: The HEK293 cell line is co-transfected transiently with two plasmids, one with the RORγ ligand-binding domain fused to galactose-responsive transcription factor (Ga14), and the other with the luciferase reporter gene and Gal binding sites (UAS). This construction allows to determine the RORT activity in a cellular system through the measurement of luminescence.
A suspension of RORγ reporter cells was dispensed into plates and cultured 2 h at 37° C. and 5% CO2. Media formulation consisted in DMEM/F-12 medium (Gibco) supplemented with 10% heat inactivated FBS (Sigma-Aldrich), non-essential aminoacids (Sigma-Aldrich), 2 mM Glutamax (Gibco) and 100 U/mL penicillin (Sigma-Aldrich). Dose-response curves with compounds were prepared in 100% DMSO and further diluted 100-fold in culture medium. Compound solutions were added to the plate containing cells (final DMSO concentration of 0.1%) and incubated for 24 h at 37° C. and 5% CO2. Luciferase detection reagent was added to each well, and relative light units (RLUs) were quantified from each assay well using a plate reading luminometer.
Values of average RLU±S.D. were computed for all treatment sets, followed by the calculations of percent-reduction of RORT activity in response to respective test compound. The following formula was used: activity=100*[1−[[…]] where the theoretical minimum reduction (0% reduction). […] These calculations were performed in excel-fit software using X-204 model curve.

[2] = system: IL-17A secretion in activated PBMCs; experiment: IL-17A secretion in activated PBMCs; type: cell-based; settings: human PBMCs stimulated with CD3/CD28 Dynabeads for 48 h, absolute IC50
Description: Heparin-treated whole blood from healthy human volunteers was supplied from Hospital de Sant Pau (Barcelona) under the approval of the local ethical review board for human studies (Hospital de Sant Pau, Barcelona, Spain). Human peripheral blood mononuclear cells (PBMCs) were isolated from healthy human volunteers by density gradient centrifugation using the Ficoll-Paque (GE Healthcare). PBMCs were suspended in cell culture medium which consisted on RPMI 1640 medium (Sigma-Aldrich) containing 10% heat inactivated fetal bovine serum (Sigma-Aldrich), 2 mM L-Glutamine (Gibco), 20 mM Hepes (Gibco) and 100 U/mL penicillin (Sigma-Aldrich). Cells were seeded in 384-well plate (DiscoverX), at 40,000 cells per well and cultured 2 h at 37° C. and 5% CO2.
Dose-response curves with compounds were prepared using a 5-fold serial dilution (10 concentrations) in 100% DMSO and further diluted 100-fold in culture medium. Compound solutions (5 μL) were added to the plate containing cells (final DMSO concentration of 0.1%) and incubated for 30 min. Then, cells were stimulated with CD3/CD28 Dynabeads (ThermoFisher, at a bead-to-cell ratio of 1:1) for 48 h at 37° C. and 5% CO2.
IL-17A levels in supernatant were determined by immunoassay using hIL17A QBeads (Intellicyt) and by fluorescence analysis in iQue flow cytometer following the manufacturer's instructions. Inhibition of IL-17A secretion was calculated using the following formula: inhibition=100*[1−[(x−mean basal condition)/(mean top condition—mean basal condition)]]. Activated DMSO-treated cells were used as top condition and activated GNE09461 (10 μM)-treated cells as basal condition.

[3] = HEK293 cells, luciferase reporter, 24 h incubation, absolute IC50, read-out: IC50

IC50 [1, 3] [nM] | IC50 ([1]; stated as a bound only (Tables 5 a, 6, 7), read-out: Gal4 assay IC50) [nM] | SMILES | IC50 ([2]; Homo sapiens, PBMC, 48 h) [nM] | IC50 [2] [nM]
1.6 | < 100 | NC(=O)CN1CC[C@@H](Cn2ccc3c(N(Cc4ccc(C(F)(F)F)cc4)C4CC4)ncnc32)[C@H](O)C1 (single isomer, unassigned) [Example P6-13-1] | 1.1 | –
8.6 | – | CCN(Cc1ccc(C(F)(F)F)cn1)c1ncnc2c1c(F)cn2C[C@@H]1CCN(CC(N)=O)C[C@H]1O (relative stereo) [P6-28″, rel-2-((3R,4R)-4-((4-(ethyl((5-(trifluoromethyl)pyridin-2-yl)methyl)amino)-5-fluoro-7H-pyrrolo[2,3-d]pyrimidin-7-yl)methyl)-3-hydroxypiperidin-1-yl)acetamide] | 53 | –
5.3 | – | NC(=O)CN1CC[C@@H](Cn2ccc3c(N(Cc4ccc(C(F)(F)F)cn4)C4CC4)ncnc32)[C@H](O)C1 (racemic) [Example P6-23, rac-2-((3R,4R)-4-((4-(cyclopropyl((5-(trifluoromethyl)pyridin-2-yl)methyl)amino)-7H-pyrrolo[2,3-d]pyrimidin-7-yl)methyl)-3-hydroxypiperidin-1-yl)acetamide] | 12 | –
15 | – | CC(C)N(Cc1ccc(C(F)(F)F)cc1)c1ncnc2c1ccn2C[C@@H]1CCN(CC(N)=O)C[C@H]1O (racemic) [Example P6-25, rac-2-((3R,4R)-3-hydroxy-4-((4-(isopropyl(4-(trifluoromethyl)benzyl)amino)-7H-pyrrolo[2,3-d]pyrimidin-7-yl)methyl)piperidin-1-yl)acetamide] | 35 | –
30 | – | CC(C)N(Cc1ccc(C(F)(F)F)cc1)c1ncnc2c1ccn2C[C@@H]1CCN(CC(N)=O)C[C@H]1O (single isomer, unassigned) [Example P6-25-2] | – | 130
4.6 | – | CCN(Cc1ccc(C(F)(F)F)cc1)c1ncnc2c1ccn2C[C@@H]1CCN(CC(N)=O)C[C@H]1O (racemic) [Example P6-24, rac-2-((3R,4R)-4-((4-(ethyl(4-(trifluoromethyl)benzyl)amino)-7H-pyrrolo[2,3-d]pyrimidin-7-yl)methyl)-3-hydroxypiperidin-1-yl)acetamide] | 22 | –
1.4 | – | CCN(Cc1ccc(C(F)(F)F)cc1)c1ncnc2c1ccn2C[C@@]1(O)CCN(CC(N)=O)C[C@@H]1O (single isomer, unassigned) [Example L5-2-1-1] | – | 2.7
2 | – | NC(=O)CN1CC[C@@H](Cn2ccc3c(N(Cc4ccc(C(F)(F)F)cc4)C4CC4)ncnc32)[C@H](O)C1 (single isomer, unassigned) [Example P6-13-2] | – | 1.3
12 | – | CCN(Cc1ccc(C(F)(F)F)cn1)c1ncnc2c1ccn2C[C@@H]1CCN(CC(N)=O)C[C@H]1O (relative stereo) [P6-27″, rel-2-((3R,4R)-4-((4-(ethyl((5-(trifluoromethyl)pyridin-2-yl)methyl)amino)-7H-pyrrolo[2,3-d]pyrimidin-7-yl)methyl)-3-hydroxypiperidin-1-yl)acetamide] | 70 | –
6.5 | – | CCN(Cc1ccc(-n2cccn2)cc1)c1ncnc2c1ccn2C[C@@H]1CCN(CC(N)=O)C[C@H]1O (relative stereo) [P6-30″, rel-2-((3R,4R)-4-((4-((4-(1H-pyrazol-1-yl)benzyl)(ethyl)amino)-7H-pyrrolo[2,3-d]pyrimidin-7-yl)methyl)-3-hydroxypiperidin-1-yl)acetamide] | 100 | –
1 | – | NC(=O)CN1CC[C@@H](Cn2cc(F)c3c(N(Cc4ccc(C(F)(F)F)cc4)C4CC4)ncnc32)[C@H](O)C1 (racemic) [Example P6-14, rac-2-((3R,4R)-4-((4-(cyclopropyl(4-(trifluoromethyl)benzyl)amino)-5-fluoro-7H-pyrrolo[2,3-d]pyrimidin-7-yl)methyl)-3-hydroxypiperidin-1-yl)acetamide] | 2.2 | –
0.9 | – | NC(=O)CN1CC[C@@H](Cn2ccc3c(N(Cc4ccc(C(F)(F)F)cc4)C4CC4)ncnc32)[C@H](O)C1 (racemic) [Example P6-13, rac-2-((3R,4R)-4-((4-(cyclopropyl(4-(trifluoromethyl)benzyl)amino)-7H-pyrrolo[2,3-d]pyrimidin-7-yl)methyl)-3-hydroxypiperidin-1-yl)acetamide] | 1.5 | –

More lines, now with the values behind:

SMILES | IC50 [1, 3] [nM] | IC50 ([1]; stated as a bound only (Tables 5 a, 6, 7), read-out: Gal4 assay IC50) [nM] | IC50 ([2]; Homo sapiens, PBMC, 48 h) [nM] | IC50 [2] [nM]
NC(=O)CN1CC[C@](O)(Cn2ccc3c(N(Cc4ccc(-n5cccn5)cc4)C4CC4)ncnc32)[C@@H](O)C1 (relative stereo) [R5-2″, Rel-2-((3R,4R)-4-((4-((4-(1H-pyrazol-1-yl)benzyl)(cyclopropyl)amino)-7H-pyrrolo[2,3-d]pyrimidin-7-yl)methyl)-3,4-dihydroxypiperidin-1-yl)acetamide] | 8.1 | – | 7.4 | –
CCN(Cc1ccc(C(F)(F)F)cc1F)c1ncnc2c1ccn2C[C@@]1(O)CCN(CC(N)=O)C[C@@H]1O (single isomer, unassigned) [Example L5-3-1-2] | 4.4 | – | – | 10
NC(=O)CN1CC[C@@H](Cn2cc(F)c3c(N(Cc4ccc(C(F)(F)F)cn4)C4CC4)ncnc32)[C@H](O)C1 (racemic) [Example P6-18, rac-2-((3R,4R)-4-((4-(cyclopropyl((5-(trifluoromethyl)pyridin-2-yl)methyl)amino)-5-fluoro-7H-pyrrolo[2,3-d]pyrimidin-7-yl)methyl)-3-hydroxypiperidin-1-yl)acetamide] | 4.6 | – | 14 | –
CCN(Cc1ccc(C(F)(F)F)cc1)c1ncnc2c1ccn2C[C@@]1(O)CCN(CC(N)=O)C[C@@H]1O (single isomer, unassigned) [Example L5-2-1-2] | 2 | – | 3.1 | –
NC(=O)CN1CC[C@@H](Cn2cnc3c(N(Cc4ccc(C(F)(F)F)cc4)C4CC4)ncnc32)[C@H](O)C1 (relative stereo) [P6-26″, rel-2-((3R,4R)-4-((6-(cyclopropyl(4-(trifluoromethyl)benzyl)amino)-9H-purin-9-yl)methyl)-3-hydroxypiperidin-1-yl)acetamide] | 5.1 | – | 21 | –
NC(=O)CN1CCC(O)(Cn2ccc3c(N(Cc4ccc(C(F)(F)F)cc4)C4CC4)ncnc32)CC1 [Example 3P6-2, 2-(4-((4-(cyclopropyl(4-(trifluoromethyl)benzyl)amino)-7H-pyrrolo-[2,3-d]pyrimidin-7-yl)methyl)-4-hydroxypiperidin-1-yl)acetamide] | 4.2 | – | 2.2 | –
NC(=O)CN1CC[C@@H](Cn2cc(F)c3c(N(Cc4ccc(C(F)(F)F)nc4)C4CC4)ncnc32)[C@H](O)C1 (racemic) [Example P6-15, rac-2-((3R,4R)-4-((4-(cyclopropyl((6-(trifluoromethyl)pyridin-3-yl)methyl)amino)-5-fluoro-7H-pyrrolo[2,3-d]pyrimidin-7-yl)methyl)-3-hydroxypiperidin-1-yl)acetamide] | 10 | – | 18 | –
NC(=O)CN1CCC(O)(Cn2cc(F)c3c(N(Cc4ccc(C(F)(F)F)cc4)C4CC4)ncnc32)CC1 [Example 3P6-1, 2-(4-((4-(Cyclopropyl(4-(trifluoromethyl)benzyl)amino)-5-fluoro-7H-pyrrolo[2,3-d]pyrimidin-7-yl)methyl)-4-hydroxypiperidin-1-yl)acetamide] | 6.9 | – | 21 | –
CN(Cc1ccc(C(F)(F)F)cc1)c1ncnc2c1c(F)cn2C[C@@H]1CCN(CC(N)=O)C[C@H]1O (racemic) [Example P6-12, rac-2-((3R,4R)-4-((5-fluoro-4-(methyl(4-(trifluoromethyl)benzyl)amino)-7H-pyrrolo[2,3-d]pyrimidin-7-yl)methyl)-3-hydroxypiperidin-1-yl)acetamide] | 5.2 | – | 30 | –
